Laboratory results reported in ChEMBL document CHEMBL4017471, “Discovery of novel aminobenzisoxazole derivatives as orally available factor IXa inhibitors” (Bioorg Med Chem Lett, 2017).
Values after ≈ are worked out from the molar mass of the structure shown. Active and inactive are the calls of the source. No cut-off for these calls is given here.

System: not listed separately
Test: Cmax in rat at 10 mg/kg, po
Assay type: ADME, organism-based
Design: dose 10 mg/kg, route oral
Conditions: in vivo

SMILES	Cmax [ng/mL]
Cc1ncn(-c2ccc(C(=O)N[C@H]3[C@H]4CC[C@H]3N(c3ncc(Cl)c5cnoc35)C4)c(Cl)c2)n1	1600

System: Plasma
Test: Effect on prothrombin time in human plasma assessed as concentration required to double prothrombin time
Assay type: functional
Conditions: not given

SMILES	2PT [µM]
Cc1ncn(-c2ccc(C(=O)N[C@H]3[C@H]4CC[C@H]3N(c3ncc(Cl)c5cnoc35)C4)c(Cl)c2)n1	>200

System: not listed separately
Test: Total clearance in rat at 1 mg/kg, iv
Assay type: ADME, organism-based
Conditions: in vivo

SMILES	clearance [mL/min/kg]
Cc1ncn(-c2ccc(C(=O)N[C@H]3[C@H]4CC[C@H]3N(c3ncc(Cl)c5cnoc35)C4)c(Cl)c2)n1	16.5

System: not listed separately
Test: AUCt in rat at 1 mg/kg, iv
Assay type: ADME, organism-based
Conditions: in vivo

SMILES	AUC(0-t) [ng·h/mL]
Cc1ncn(-c2ccc(C(=O)N[C@H]3[C@H]4CC[C@H]3N(c3ncc(Cl)c5cnoc35)C4)c(Cl)c2)n1	1010

Biological target: T1, Cytochrome P450 1A2 (Homo sapiens, UniProt P05177)
T1 sequence (P05177 whole entry): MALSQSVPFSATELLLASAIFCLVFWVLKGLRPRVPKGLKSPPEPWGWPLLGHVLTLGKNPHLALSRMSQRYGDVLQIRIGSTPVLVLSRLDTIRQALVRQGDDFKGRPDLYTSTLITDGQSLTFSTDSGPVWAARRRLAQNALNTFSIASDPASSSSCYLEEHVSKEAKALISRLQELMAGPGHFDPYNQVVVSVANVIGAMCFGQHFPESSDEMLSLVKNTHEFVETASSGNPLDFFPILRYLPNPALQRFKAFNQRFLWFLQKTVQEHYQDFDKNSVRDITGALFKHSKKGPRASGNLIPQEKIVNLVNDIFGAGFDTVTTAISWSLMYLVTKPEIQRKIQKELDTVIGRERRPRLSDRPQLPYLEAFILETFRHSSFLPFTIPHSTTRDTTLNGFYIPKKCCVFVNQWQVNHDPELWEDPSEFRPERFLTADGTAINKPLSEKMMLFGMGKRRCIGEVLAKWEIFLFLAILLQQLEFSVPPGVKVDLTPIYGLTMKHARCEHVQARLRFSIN
Test: Inhibition of CYP1A2 in liver microsomes (unknown origin) assessed as formation of acetaminophen from phenacetin in presence of NADPH by LC-MS/MS analysis
Assay type: ADME
Conditions: not given

SMILES	IC50 [µM]
Cc1ncn(-c2ccc(C(=O)N[C@H]3[C@H]4CC[C@H]3N(c3ncc(Cl)c5cnoc35)C4)c(Cl)c2)n1	> 10

System: not listed separately
Test: AUCt in rat at 10 mg/kg, po
Assay type: ADME, organism-based
Conditions: in vivo

SMILES	AUC(0-t) [ng·h/mL]
Cc1ncn(-c2ccc(C(=O)N[C@H]3[C@H]4CC[C@H]3N(c3ncc(Cl)c5cnoc35)C4)c(Cl)c2)n1	5150

System: not listed separately
Test: Volume of distribution at steady state in rat at 1 mg/kg, iv
Assay type: ADME, organism-based
Conditions: in vivo, read-out: Vdss

SMILES	Vd [L/kg]
Cc1ncn(-c2ccc(C(=O)N[C@H]3[C@H]4CC[C@H]3N(c3ncc(Cl)c5cnoc35)C4)c(Cl)c2)n1	0.9

Biological target: Coagulation factor IX (Rattus norvegicus, UniProt P16296)
Test: Inhibition of rat coagulation factor 9a
Conditions: not given

Chain of Coagulation factor IX (Rattus norvegicus, UniProt P16296) (P16296 40-185 limits assumed): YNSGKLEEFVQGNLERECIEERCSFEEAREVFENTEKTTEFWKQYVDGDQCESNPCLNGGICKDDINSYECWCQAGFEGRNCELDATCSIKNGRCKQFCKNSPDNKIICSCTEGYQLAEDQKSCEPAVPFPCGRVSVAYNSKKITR
Chain of Coagulation factor IX (Rattus norvegicus, UniProt P16296) (P16296 228-462 limits assumed): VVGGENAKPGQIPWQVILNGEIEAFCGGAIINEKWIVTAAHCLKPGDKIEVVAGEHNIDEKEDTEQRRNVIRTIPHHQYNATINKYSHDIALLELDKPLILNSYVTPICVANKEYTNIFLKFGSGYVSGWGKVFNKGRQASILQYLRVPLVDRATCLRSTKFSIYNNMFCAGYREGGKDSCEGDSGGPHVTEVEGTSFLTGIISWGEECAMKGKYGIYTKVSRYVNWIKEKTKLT

SMILES	IC50 [nM]
Cc1ncn(-c2ccc(C(=O)N[C@H]3[C@H]4CC[C@H]3N(c3ncc(Cl)c5cnoc35)C4)c(Cl)c2)n1	3.7

System: not listed separately
Test: Metabolic stability in dog liver microsomes at 1 uM measured after 20 mins in presence of NADP+ by LC-MS/MS method
Assay type: ADME, Canis lupus familiaris, microsome
Conditions: read-out: Stability

SMILES	remaining at 20 min, 1 µM [%]
Cc1ncn(-c2ccc(C(=O)N[C@H]3[C@H]4CC[C@H]3N(c3ncc(Cl)c5cnoc35)C4)c(Cl)c2)n1	11

System: not listed separately
Test: Volume of distribution at steady state in dog at 0.3 mg/kg, iv
Assay type: ADME, organism-based, Canis lupus familiaris
Conditions: in vivo, read-out: Vdss

SMILES	Vd [L/kg]
Cc1ncn(-c2ccc(C(=O)N[C@H]3[C@H]4CC[C@H]3N(c3ncc(Cl)c5cnoc35)C4)c(Cl)c2)n1	1.3

System: not listed separately
Test: Half life in rat at 1 mg/kg, iv
Assay type: ADME, organism-based
Conditions: in vivo

SMILES	half-life [min]
Cc1ncn(-c2ccc(C(=O)N[C@H]3[C@H]4CC[C@H]3N(c3ncc(Cl)c5cnoc35)C4)c(Cl)c2)n1	48

System: not listed separately
Test: Unbound plasma concentration in rat at 10 uM measured after 4 hrs by equilibrium dialysis method
Assay type: ADME, cell-free
Conditions: not given

SMILES	fraction unbound at 4 h, 10 µM
Cc1ncn(-c2ccc(C(=O)N[C@H]3[C@H]4CC[C@H]3N(c3ncc(Cl)c5cnoc35)C4)c(Cl)c2)n1	0.051

Biological target: T1, Cytochrome P450 1A2
Test: Induction of CYP1A2 in hepatocytes (unknown origin) assessed as 7-ethoxyresorufin O-dealkylation at 0.3 to 10 uM treated for 3 days
Assay type: ADME, cell-based
Conditions: 72 h

SMILES	Activity
Cc1ncn(-c2ccc(C(=O)N[C@H]3[C@H]4CC[C@H]3N(c3ncc(Cl)c5cnoc35)C4)c(Cl)c2)n1	Not Active

System: Rattus norvegicus
Test: Anticoagulant activity in po dosed rat assessed as prolongation of activated partial thromboplastin time measured after 2 hrs
Assay type: functional, organism-based
Conditions: not given

SMILES	Activity
O=C(NC[C@H]1CN(c2ccc(N3CCOCC3=O)cc2)C(=O)O1)c1ccc(Cl)s1	Active

System: not listed separately
Test: Total clearance in dog at 0.3 mg/kg, iv
Assay type: ADME, organism-based, Canis lupus familiaris
Conditions: in vivo

SMILES	clearance [mL/min/kg]
Cc1ncn(-c2ccc(C(=O)N[C@H]3[C@H]4CC[C@H]3N(c3ncc(Cl)c5cnoc35)C4)c(Cl)c2)n1	3.5

System: not listed separately
Test: Metabolic stability in rat liver microsomes at 1 uM measured after 20 mins in presence of NADP+ by LC-MS/MS method
Assay type: ADME, microsome
Conditions: read-out: Stability

SMILES	remaining at 20 min, 1 µM [%]
Cc1ncn(-c2ccc(C(=O)N[C@H]3[C@H]4CC[C@H]3N(c3ncc(Cl)c5cnoc35)C4)c(Cl)c2)n1	24

Biological target: Cytochrome P450 2C19 (Homo sapiens, UniProt P33261)
Test: Inhibition of CYP2C19 in liver microsomes (unknown origin) assessed as formation of 4-hydroxymephenytoin from S-mephenytoin in presence of NADPH by LC-MS/MS analysis
Assay type: ADME
Conditions: not given

Chain of Cytochrome P450 2C19 (P33261 whole entry): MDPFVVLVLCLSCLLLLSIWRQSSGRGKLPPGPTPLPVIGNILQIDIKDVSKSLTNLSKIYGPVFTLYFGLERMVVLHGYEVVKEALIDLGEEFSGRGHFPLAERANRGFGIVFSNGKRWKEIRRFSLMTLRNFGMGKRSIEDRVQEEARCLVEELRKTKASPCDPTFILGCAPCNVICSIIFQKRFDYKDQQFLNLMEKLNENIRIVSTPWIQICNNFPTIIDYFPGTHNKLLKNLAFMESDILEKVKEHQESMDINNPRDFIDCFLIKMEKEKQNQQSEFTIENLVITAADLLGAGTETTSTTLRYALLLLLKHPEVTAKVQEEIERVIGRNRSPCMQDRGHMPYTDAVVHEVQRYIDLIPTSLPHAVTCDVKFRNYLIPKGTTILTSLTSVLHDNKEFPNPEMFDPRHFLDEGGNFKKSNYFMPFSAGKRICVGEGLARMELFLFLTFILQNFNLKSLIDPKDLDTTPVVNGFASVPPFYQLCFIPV

SMILES	IC50 [µM]
Cc1ncn(-c2ccc(C(=O)N[C@H]3[C@H]4CC[C@H]3N(c3ncc(Cl)c5cnoc35)C4)c(Cl)c2)n1	> 10

System: not listed separately
Test: Apparent permeability in MDCK2-MDR1 cells at 5 uM after 1 hr by LC-MS/MS method
Assay type: ADME, cell-based, Canis lupus familiaris
Conditions: dog, MDCK-MDR1

SMILES	Papp at 1 h, 5 µM [×10⁻⁶ cm/s]
Cc1ncn(-c2ccc(C(=O)N[C@H]3[C@H]4CC[C@H]3N(c3ncc(Cl)c5cnoc35)C4)c(Cl)c2)n1	5.8

System: not listed separately
Test: Half life in dog at 0.3 mg/kg, iv
Assay type: ADME, organism-based, Canis lupus familiaris
Conditions: in vivo

SMILES	half-life [min]
Cc1ncn(-c2ccc(C(=O)N[C@H]3[C@H]4CC[C@H]3N(c3ncc(Cl)c5cnoc35)C4)c(Cl)c2)n1	282

System: Plasma
Test: Effect on prothrombin time in rat plasma assessed as concentration required to double prothrombin time
Assay type: functional
Conditions: not given

SMILES	2PT [µM]
Cc1ncn(-c2ccc(C(=O)N[C@H]3[C@H]4CC[C@H]3N(c3ncc(Cl)c5cnoc35)C4)c(Cl)c2)n1	>200

System: not listed separately
Test: Unbound plasma concentration in dog at 10 uM measured after 4 hrs by equilibrium dialysis method
Assay type: ADME, cell-free, Canis lupus familiaris
Conditions: not given

SMILES	fraction unbound at 4 h, 10 µM
Cc1ncn(-c2ccc(C(=O)N[C@H]3[C@H]4CC[C@H]3N(c3ncc(Cl)c5cnoc35)C4)c(Cl)c2)n1	0.054

System: not listed separately
Test: Metabolic stability in human liver microsomes at 1 uM measured after 20 mins in presence of NADP+ by LC-MS/MS method
Assay type: ADME, microsome
Conditions: read-out: Stability

SMILES	remaining at 20 min, 1 µM [%]
Cc1ncn(-c2ccc(C(=O)N[C@H]3[C@H]4CC[C@H]3N(c3ncc(Cl)c5cnoc35)C4)c(Cl)c2)n1	11

Biological target: T2, Cytochrome P450 3A4 (Homo sapiens, UniProt P08684)
Test: Inhibition of CYP3A4 in liver microsomes (unknown origin) assessed as formation of 1-hydroxymidazolam from midazolam in presence of NADPH by LC-MS/MS analysis
Assay type: ADME
Conditions: not given

T2 sequence (P08684 whole entry): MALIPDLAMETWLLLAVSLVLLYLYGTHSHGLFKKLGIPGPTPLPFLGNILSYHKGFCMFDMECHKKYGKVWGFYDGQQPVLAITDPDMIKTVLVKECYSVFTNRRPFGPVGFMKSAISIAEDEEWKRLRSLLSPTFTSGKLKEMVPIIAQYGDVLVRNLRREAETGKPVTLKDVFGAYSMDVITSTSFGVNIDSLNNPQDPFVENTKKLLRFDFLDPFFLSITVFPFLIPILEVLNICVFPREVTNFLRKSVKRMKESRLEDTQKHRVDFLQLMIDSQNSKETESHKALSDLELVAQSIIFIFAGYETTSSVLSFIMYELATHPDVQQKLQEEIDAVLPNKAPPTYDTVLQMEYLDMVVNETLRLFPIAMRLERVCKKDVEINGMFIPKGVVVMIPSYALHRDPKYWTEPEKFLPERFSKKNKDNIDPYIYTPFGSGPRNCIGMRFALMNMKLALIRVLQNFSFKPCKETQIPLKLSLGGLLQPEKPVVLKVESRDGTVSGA

SMILES	IC50 [µM]
Cc1ncn(-c2ccc(C(=O)N[C@H]3[C@H]4CC[C@H]3N(c3ncc(Cl)c5cnoc35)C4)c(Cl)c2)n1	> 10

Biological target: Coagulation factor IX (Homo sapiens, UniProt P00740)
Conditions: not given

Chain of Coagulation factor IX (Homo sapiens, UniProt P00740) (P00740 47-191 limits assumed): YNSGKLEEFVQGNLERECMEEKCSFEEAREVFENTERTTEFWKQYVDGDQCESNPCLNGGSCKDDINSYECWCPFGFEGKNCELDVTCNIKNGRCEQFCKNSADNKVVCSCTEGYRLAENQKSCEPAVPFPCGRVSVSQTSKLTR
Chain of Coagulation factor IX (Homo sapiens, UniProt P00740) (P00740 227-461 limits assumed): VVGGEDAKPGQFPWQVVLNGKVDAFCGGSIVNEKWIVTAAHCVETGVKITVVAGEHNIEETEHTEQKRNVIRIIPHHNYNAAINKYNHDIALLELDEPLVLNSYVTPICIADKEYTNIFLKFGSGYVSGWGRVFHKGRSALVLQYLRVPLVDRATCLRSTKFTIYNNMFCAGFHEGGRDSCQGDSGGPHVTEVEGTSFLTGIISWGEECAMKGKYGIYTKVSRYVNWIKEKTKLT

SMILES	IC50 [nM]
Cc1ncn(-c2ccc(C(=O)N[C@H]3[C@H]4CC[C@H]3N(c3ncc(Cl)c5cnoc35)C4)c(Cl)c2)n1	4.9

System: not listed separately
Test: Tmax in rat at 10 mg/kg, po
Assay type: ADME, organism-based
Conditions: in vivo

SMILES	Tmax [h]
Cc1ncn(-c2ccc(C(=O)N[C@H]3[C@H]4CC[C@H]3N(c3ncc(Cl)c5cnoc35)C4)c(Cl)c2)n1	1

System: not listed separately
Test: Unbound plasma concentration in human at 10 uM measured after 4 hrs by equilibrium dialysis method
Assay type: ADME, cell-free
Conditions: not given

SMILES	fraction unbound at 4 h, 10 µM
Cc1ncn(-c2ccc(C(=O)N[C@H]3[C@H]4CC[C@H]3N(c3ncc(Cl)c5cnoc35)C4)c(Cl)c2)n1	0.041

Biological target: Coagulation factor X (Homo sapiens, UniProt P00742)
Conditions: not given

Chain of Coagulation factor X (P00742 41-179 limits assumed): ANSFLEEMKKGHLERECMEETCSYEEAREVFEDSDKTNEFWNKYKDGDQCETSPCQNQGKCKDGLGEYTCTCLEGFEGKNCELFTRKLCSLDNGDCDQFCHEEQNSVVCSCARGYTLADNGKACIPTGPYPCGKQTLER
Chain of Coagulation factor X (P00742 235-488 limits assumed): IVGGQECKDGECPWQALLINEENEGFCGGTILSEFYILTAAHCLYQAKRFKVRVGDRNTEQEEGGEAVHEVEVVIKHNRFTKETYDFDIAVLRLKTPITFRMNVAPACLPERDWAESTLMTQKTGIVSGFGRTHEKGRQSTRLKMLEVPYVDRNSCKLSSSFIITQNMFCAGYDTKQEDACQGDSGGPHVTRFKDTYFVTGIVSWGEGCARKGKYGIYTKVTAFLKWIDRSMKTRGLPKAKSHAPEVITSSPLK

SMILES	IC50 [µM]
Cc1ncn(-c2ccc(C(=O)N[C@H]3[C@H]4CC[C@H]3N(c3ncc(Cl)c5cnoc35)C4)c(Cl)c2)n1	31

System: not listed separately
Test: Solubility of the compound in phosphate buffer at pH 7.4 measured after 1.5 hrs by UV absorbance method
Assay type: physicochemical
Conditions: not given

SMILES	solubility at 1.5 h [µM]
Cc1ncn(-c2ccc(C(=O)N[C@H]3[C@H]4CC[C@H]3N(c3ncc(Cl)c5cnoc35)C4)c(Cl)c2)n1	29 (≈ 14 µg/mL)

System: not listed separately
Test: Apparent permeability in MDCK cells at 5 uM after 1 hr by LC-MS/MS method
Assay type: ADME, cell-based, Canis lupus familiaris
Conditions: dog

SMILES	Papp at 1 h, 5 µM [×10⁻⁶ cm/s]
Cc1ncn(-c2ccc(C(=O)N[C@H]3[C@H]4CC[C@H]3N(c3ncc(Cl)c5cnoc35)C4)c(Cl)c2)n1	14.5

System: Plasma
Test: Anticoagulant activity in rat plasma assessed as concentration required to double activated partial thromboplastin time
Assay type: functional
Conditions: not given

SMILES	2aPTT [µM]
Cc1ncn(-c2ccc(C(=O)N[C@H]3[C@H]4CC[C@H]3N(c3ncc(Cl)c5cnoc35)C4)c(Cl)c2)n1	6.2

System: Plasma
Test: Anticoagulant activity in human plasma assessed as concentration required to double activated partial thromboplastin time
Assay type: functional
Conditions: not given

SMILES	2aPTT [µM]
Cc1ncn(-c2ccc(C(=O)N[C@H]3[C@H]4CC[C@H]3N(c3ncc(Cl)c5cnoc35)C4)c(Cl)c2)n1	5.8

Biological target: Cytochrome P450 2D6 (Homo sapiens, UniProt P10635)
Test: Inhibition of CYP2D6 in liver microsomes (unknown origin) assessed as formation of 1-hydroxybufuralol from bufuralol in presence of NADPH by LC-MS/MS analysis
Assay type: ADME
Conditions: not given

Chain of Cytochrome P450 2D6 (P10635 whole entry): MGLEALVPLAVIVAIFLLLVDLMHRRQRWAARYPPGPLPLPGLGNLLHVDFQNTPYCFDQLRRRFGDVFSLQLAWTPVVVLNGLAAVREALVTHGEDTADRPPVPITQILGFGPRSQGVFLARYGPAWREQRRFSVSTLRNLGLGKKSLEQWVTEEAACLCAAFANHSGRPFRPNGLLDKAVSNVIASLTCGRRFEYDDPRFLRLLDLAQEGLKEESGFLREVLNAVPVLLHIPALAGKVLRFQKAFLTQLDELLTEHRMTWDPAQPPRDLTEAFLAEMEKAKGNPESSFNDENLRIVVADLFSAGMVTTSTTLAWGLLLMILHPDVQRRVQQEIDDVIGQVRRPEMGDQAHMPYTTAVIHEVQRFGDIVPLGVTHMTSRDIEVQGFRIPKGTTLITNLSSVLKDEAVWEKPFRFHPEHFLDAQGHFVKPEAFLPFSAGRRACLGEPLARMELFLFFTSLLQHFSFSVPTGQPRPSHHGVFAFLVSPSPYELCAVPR

SMILES	IC50 [µM]
Cc1ncn(-c2ccc(C(=O)N[C@H]3[C@H]4CC[C@H]3N(c3ncc(Cl)c5cnoc35)C4)c(Cl)c2)n1	> 10

Biological target: Cytochrome P450 2C9 (Homo sapiens, UniProt P11712)
Test: Inhibition of CYP2C9 in liver microsomes (unknown origin) assessed as formation of 4-hydroxydiclofenac from diclofenac in presence of NADPH by LC-MS/MS analysis
Assay type: ADME
Conditions: not given

Chain of Cytochrome P450 2C9 (P11712 whole entry): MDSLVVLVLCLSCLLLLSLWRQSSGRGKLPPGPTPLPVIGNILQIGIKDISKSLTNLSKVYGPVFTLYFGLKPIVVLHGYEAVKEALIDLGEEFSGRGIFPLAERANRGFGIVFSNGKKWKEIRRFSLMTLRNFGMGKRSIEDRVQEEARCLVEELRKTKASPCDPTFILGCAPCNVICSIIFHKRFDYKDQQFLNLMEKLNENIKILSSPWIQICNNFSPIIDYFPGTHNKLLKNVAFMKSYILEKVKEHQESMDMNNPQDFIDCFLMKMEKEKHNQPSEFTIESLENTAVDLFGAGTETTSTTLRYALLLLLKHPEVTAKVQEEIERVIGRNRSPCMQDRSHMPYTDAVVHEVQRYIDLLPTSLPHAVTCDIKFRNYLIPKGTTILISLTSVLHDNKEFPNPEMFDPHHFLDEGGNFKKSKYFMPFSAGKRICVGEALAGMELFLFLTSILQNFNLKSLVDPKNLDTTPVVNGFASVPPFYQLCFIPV

SMILES	IC50 [µM]
Cc1ncn(-c2ccc(C(=O)N[C@H]3[C@H]4CC[C@H]3N(c3ncc(Cl)c5cnoc35)C4)c(Cl)c2)n1	> 10

System: not listed separately
Test: AUCt in dog at 0.3 mg/kg, iv
Assay type: ADME, organism-based, Canis lupus familiaris
Conditions: in vivo

SMILES	AUC(0-t) [ng·h/mL]
Cc1ncn(-c2ccc(C(=O)N[C@H]3[C@H]4CC[C@H]3N(c3ncc(Cl)c5cnoc35)C4)c(Cl)c2)n1	1410

System: not listed separately
Test: Apparent permeability of the compound at 5 uM after 5 hrs by PAMPA
Assay type: physicochemical
Conditions: not given

SMILES	Papp at 5 h, 5 µM [×10⁻⁶ cm/s]
Cc1ncn(-c2ccc(C(=O)N[C@H]3[C@H]4CC[C@H]3N(c3ncc(Cl)c5cnoc35)C4)c(Cl)c2)n1	6.5

System: not listed separately
Test: Oral bioavailability in rat at 10 mg/kg
Assay type: ADME, organism-based
Conditions: in vivo

SMILES	bioavailability [%]
Cc1ncn(-c2ccc(C(=O)N[C@H]3[C@H]4CC[C@H]3N(c3ncc(Cl)c5cnoc35)C4)c(Cl)c2)n1	51

Biological target: T2, Cytochrome P450 3A4
Test: Induction of CYP3A4 in hepatocytes (unknown origin) assessed as midazolam 1-hydroxylation at 0.3 to 10 uM treated for 3 days
Assay type: ADME, cell-based
Conditions: 72 h

SMILES	Activity
Cc1ncn(-c2ccc(C(=O)N[C@H]3[C@H]4CC[C@H]3N(c3ncc(Cl)c5cnoc35)C4)c(Cl)c2)n1	Not Active

System: Rattus norvegicus
Test: Effect on prothrombin time in rat at 1 to 100 mg/kg, po measured after 2 hrs
Assay type: functional, organism-based
Conditions: not given

SMILES	Activity
O=C(NC[C@H]1CN(c2ccc(N3CCOCC3=O)cc2)C(=O)O1)c1ccc(Cl)s1	Active
